Results published in patent publication US20150071918A1, “PEPTIDES FOR THE TREATMENT OF CANCER” (H. LEE MOFFITT CANCER CENTER AND RESEARCH INSTITUTE, INC., priority 2012, published 2015).
Read-outs that look alike come from different tables or passages of the source. *1 amine or outer side, *2 acyl side, *3 side chain or, on linkers, in order; H or OH if unused. Where a SMILES comes first, the peptide text is derived from it. Bridges are numbered along the chain shown (N, C = ends). Primed or numbered codes have the meaning given here. [ ]: non-standard residue; d: D form. The star is where a group is joined. T1 = linker NH2CH2CH2N(SO2Me)CH2COOH, CS(=O)(=O)N(CCN[*:1])CC(=O)[*:2]; T1″ = NH2CH2CH2N(SO2Me)CH2COOH, CS(=O)(=O)N(CCN[*:1])CC(=O)[*:2]; dProlinol(O-CH2CO) = O=C(COC[C@H]1CCCN1[*:1])[*:2]; N(2-Aminoethyl)Gly = O=C(CN(CCN[*:3])[*:1])[*:2]; T3 = linker N(CH2)3CHCH2OCH2COOH; Nle = CCCC[C@H](N)C(=O)O; Ms = CS(=O)(=O)*; Sar = CNCC(=O)O

System: H929 myeloma cells
Format: cell-based, human
Settings: for bioactivity relative to parent/comparator peptide: SAR statements; for activity relative to linear D-HYD1 (words): TOPRO 3
Experimental: H929 cells were treated for 24 hours with varying concentrations of peptide. Cell death was measured by Topro-3 staining and FACS analysis. The IC50 values were obtained from linear regression analysis and an average value was obtained from 3 independent experiments.
Table 4 legend: Structure activity relationship in H929 myeloma cells of cyclic INTEGRIN INTERACTION INHIBITORS derivatives. The minimal bioactive core sequence of INTEGRIN INTERACTION INHIBITORS WSVVM (SEQ ID NO:33) was cyclized using 2 novel reduced amide bond beta turn promoters and KLKLK (SEQ ID NO:34) as the non-recognition sequence. H929 cells were treated with varying concentrations of the indicated peptide for 24 h. Cell viability was determined using Topro-3 staining and FACS analysis after drug treatment. IC50 values were generated from linear regressions generated from the dose response curves (n=mean of 3 independent experiments).
A colony forming assay was used to compare induced cell death in H929 multiple myeloma cells. Cells were treated with integrin interaction inhibitors, shown in FIG. 5 and Table 4, and cell death was measured following 24 hour peptide treatment by TOPRO-3 staining and FACS analysis.

[1] = H929 myeloma cells, 24 h treatment, Topro-3 staining and FACS, mean of at least 3 independent experiments, read-out: IC50
[2] = Table 8, cyclic III peptide analogs, H929 cells, read-out: IC50

Row | Compound | bioactivity relative to parent/comparator peptide (H929 cells) | IC50 [1] [µM] | IC50 [2] [µM] | other results
1 | CSCC[C@@H]1NC(=O)CN(S(C)(=O)=O)CCNC(=O)[C@H](CCCCN)NC(=O)[C@H](CC(C)C)NC(=O)[C@H](CCCCN)NC(=O)[C@H](CC(C)C)NC(=O)[C@H](CCCCN)NC(=O)CN(S(C)(=O)=O)CCNC(=O)[C@H](C)NC(=O)[C@H](CO)NC(=O)[C@H](C(C)C)NC(=O)[C@H](C(C)C)NC1=O [Peptide 3, KLKLKT1MVVSAT1] | decrease in activity |  |  | 
2 | KLKLKT1WAVVN*T1 (cyclo(KLKLK[T1]WAVV[Nle][T1])) [Peptide 11] |  | 10 | 12 | 
3 | KLKLKT1AAVVN*T1 (cyclo(KLKLK[T1″]AAVV[Nle][T1″])) [Peptide 15] | unexpected improvement in bioactivity | 18 | 3 | 
4 | KLKLKT1WAVVAT1 (cyclo(KLKLK[T1]WAVVA[T1])) [Peptide 12] |  | 10 | 69 | 
5 | CSCC[C@H]1NC(=O)CN(S(C)(=O)=O)CCNC(=O)[C@@H](CCCCN)NC(=O)[C@@H](CC(C)C)NC(=O)[C@@H](CCCCN)NC(=O)[C@@H](CC(C)C)NC(=O)[C@@H](CCCCN)NC(=O)CN(S(C)(=O)=O)CCNC(=O)[C@@H](Cc2c[nH]c3ccccc23)NC(=O)[C@@H](CO)NC(=O)[C@@H](C(C)C)NC(=O)[C@@H](C(C)C)NC1=O [cyclic D-HYD1] |  |  |  | IC50 (24 h): 30 µM; activity relative to linear D-HYD1 (words) (H929 cells): twice as active as linear D-HYD1; activity relative to linear D-HYD1 (words) (H929 cells, listed as c-D-HYD1): about twice as active as linear D-HYD1
6 | CSCC[C@@H]1NC(=O)CN(S(C)(=O)=O)CCNC(=O)[C@H](CCCCN)NC(=O)[C@H](CC(C)C)NC(=O)[C@H](CCCCN)NC(=O)[C@H](CC(C)C)NC(=O)[C@H](CCCCN)NC(=O)CN(S(C)(=O)=O)CCNC(=O)[C@H](Cc2c[nH]c3ccccc23)NC(=O)[C@H](CO)NC(=O)[C@H](C(C)C)NC(=O)[C@H](C)NC1=O [Peptide 6, KLKLKT1MAVSWT1] | increase in activity |  |  | 
7 | CSCC[C@@H]1NC(=O)CN(S(C)(=O)=O)CCNC(=O)[C@H](CCCCN)NC(=O)[C@H](CC(C)C)NC(=O)[C@H](CCCCN)NC(=O)[C@H](CC(C)C)NC(=O)[C@H](CCCCN)NC(=O)CN(S(C)(=O)=O)CCNC(=O)[C@H](Cc2c[nH]c3ccccc23)NC(=O)[C@H](CO)NC(=O)[C@H](C)NC(=O)[C@H](C(C)C)NC1=O [Peptide 5, KLKLKT1MVASWT1] | decrease in activity |  |  | 
8 | KLKLQT1N*VVAWT3 (cyclo(KLKLQ[T1][Nle]VVAW[T3])) [Peptide 19] |  | 12 | 19 | 
9 | KLKLKT1WSVVMT1 (cyclo(KLKLK[T1]WSVVM[T1])) [Peptide 10] | increases in activity relative to the inverso peptide | 1 | 6 | IC50 (Table 4, H929 myeloma cells, 24 h, Topro-3 staining and FACS, mean of 3 independent experiments, read-out: IC50): 6.7 µM; IC50 (Table 5, H929 multiple myeloma cells, 24 hour peptide treatment, mean and standard deviation of three independent experiments, read-out: IC50): 5.9 µM
10 | CCCC[C@@H]1NC(=O)CN(S(C)(=O)=O)CCNC(=O)[C@H](CCCCN)NC(=O)[C@H](CC(C)C)NC(=O)[C@H](CCCCN)NC(=O)[C@H](CC(C)C)NC(=O)[C@H](CCCCN)NC(=O)CN(S(C)(=O)=O)CCNC(=O)[C@H](Cc2c[nH]c3ccccc23)NC(=O)[C@H](Cc2ccc(O)cc2)NC(=O)[C@H](C(C)C)NC(=O)[C@H](C(C)C)NC1=O [Peptide 9, KLKLKT1N*VVYWT1] | had a similar bioactivity as the inverso cyclic III peptide 8 |  |  | 
11 | KLKLKT1WAVAN*T1 (cyclo(KLKLK[T1]WAVAL[T1]); not fully specified (residue 11); printed as KLKLKT1WAVAN*T1) [Peptide 13] |  | 9 | 26 | 
12 | CCCC[C@@H]1NC(=O)CN(S(C)(=O)=O)CCNC(=O)[C@H](CCCCN)NC(=O)[C@H](CC(C)C)NC(=O)[C@H](CCCCN)NC(=O)[C@H](CC(C)C)NC(=O)[C@H](CCCCN)NC(=O)COC[C@H]2CCCN2C(=O)[C@H](Cc2c[nH]c3ccccc23)NC(=O)[C@H](C)NC(=O)[C@H](CC(C)C)NC(=O)[C@H](C(C)C)NC1=O [Peptide 24, KLKLKT1N*VLAWT3] (Ms-[N(2-Aminoethyl)Gly][Nle]VLAW[dProlinol(O-CH2CO)]KLKLK; lactam 1-C) |  |  | 10 | 
13 | KLKLKT1WAAVN*T1 (cyclo(KLKLK[T1″]WAAV[Nle][T1″])) [Peptide 14] |  | > 50 | 41 | 
14 | KLKQKT1N*VVAWT3 [21] (cyclo(KLKQK[T1][Nle]VVAW[T3])) [Peptide 21] |  | 39 | 25 | 
15 | CC(C)C[C@@H]1NC(=O)[C@H](CCCCN)NC(=O)CN(S(C)(=O)=O)CCNC(=O)[C@H](Cc2c[nH]c3ccccc23)NC(=O)[C@H](CO)NC(=O)[C@H](C(C)C)NC(=O)[C@H](C(C)C)NC(=O)[C@H](C)NC(=O)CN(S(C)(=O)=O)CCNC(=O)[C@H](CCCCN)NC(=O)[C@H](CC(C)C)NC(=O)[C@H](CCCCN)NC1=O [Peptide 7, KLKLKT1AVVSWT1] | decrease in activity |  |  | 
16 | CCCC[C@@H]1NC(=O)CN(S(C)(=O)=O)CCNC(=O)[C@H](CCCCN)NC(=O)[C@H](CC(C)C)NC(=O)[C@H](CCCCN)NC(=O)[C@H](CC(C)C)NC(=O)[C@H](CCC(N)=O)NC(=O)COC[C@H]2CCCN2C(=O)[C@H](Cc2c[nH]c3ccccc23)NC(=O)[C@H](C)NC(=O)[C@H](C(C)C)NC(=O)[C@H](C(C)C)NC1=O [Peptide 18, QLKLKT1N*VVAWT3] (Ms-[N(2-Aminoethyl)Gly][Nle]VVAW[dProlinol(O-CH2CO)]QLKLK; lactam 1-C) |  |  |  | IC50 (24 h): 19 µM
17 | CCCC[C@@H]1NC(=O)CN(S(C)(=O)=O)CCNC(=O)[C@H](CCCCN)NC(=O)[C@H](CC(C)C)NC(=O)[C@H](CCCCN)NC(=O)[C@H](CC(C)C)NC(=O)[C@H](CCCCN)NC(=O)COC[C@H]2CCCN2C(=O)[C@H](Cc2c[nH]c3ccccc23)NC(=O)[C@H](C)NC(=O)[C@H]([C@@H](C)CC)NC(=O)[C@H](C(C)C)NC1=O [Peptide 25, KLKLKT1N*VIAWT3] (Ms-[N(2-Aminoethyl)Gly][Nle]VIAW[dProlinol(O-CH2CO)]KLKLK; lactam 1-C) |  |  | 10 | 
18 | CCCC[C@@H]1NC(=O)CN(S(C)(=O)=O)CCNC(=O)[C@H](CCCCN)NC(=O)[C@H](CC(C)C)NC(=O)[C@H](CCCCN)NC(=O)[C@H](CC(C)C)NC(=O)[C@H](CCCCN)NC(=O)COC[C@H]2CCCN2C(=O)[C@H](Cc2c[nH]c3ccccc23)NC(=O)[C@H](C)NC(=O)[C@H](Cc2ccccc2)NC(=O)[C@H](C(C)C)NC1=O [Peptide 26, KLKLKT1N*VFAWT3] (Ms-[N(2-Aminoethyl)Gly][Nle]VFAW[dProlinol(O-CH2CO)]KLKLK; lactam 1-C) |  |  | 9 | 
19 | KLKQKT1N*VVAWT3 [17] (cyclo(KLKQK[T1][Nle]VVAW[T3])) [Peptide 17] |  | 25 | 13 | 
20 | CCCC[C@@H]1NC(=O)[C@H](C(C)C)NC(=O)[C@H](C(C)C)NC(=O)[C@H](C)NC(=O)[C@H](Cc2c[nH]c3ccccc23)NC(=O)COC[C@H]2CCCN2C(=O)[C@H](CCCCN)NC(=O)CN(C)C(=O)[C@H](CCCCN)NC(=O)CN(C)C(=O)[C@H](CCCCN)NC(=O)COC[C@H]2CCCN2C1=O [Peptide 23, KXKXKT3WAVVN*T3] (cyclo(K[Sar]K[Sar]K[dProlinol(O-CH2CO)]WAVV[Nle][dProlinol(O-CH2CO)])) | poor bioactivity |  |  | IC50 (24 h): > 150 µM
